Results as given in ChEMBL document CHEMBL1821686, “Structure-based optimization of potent 4- and 6-azaindole-3-carboxamides as renin inhibitors” (Bioorg Med Chem Lett, 2011).
pIC50: −log10 of the molar value.

Tests used:
Renin [1] = target: T1, Renin (Homo sapiens, UniProt P00797)
T1 sequence (P00797 whole entry): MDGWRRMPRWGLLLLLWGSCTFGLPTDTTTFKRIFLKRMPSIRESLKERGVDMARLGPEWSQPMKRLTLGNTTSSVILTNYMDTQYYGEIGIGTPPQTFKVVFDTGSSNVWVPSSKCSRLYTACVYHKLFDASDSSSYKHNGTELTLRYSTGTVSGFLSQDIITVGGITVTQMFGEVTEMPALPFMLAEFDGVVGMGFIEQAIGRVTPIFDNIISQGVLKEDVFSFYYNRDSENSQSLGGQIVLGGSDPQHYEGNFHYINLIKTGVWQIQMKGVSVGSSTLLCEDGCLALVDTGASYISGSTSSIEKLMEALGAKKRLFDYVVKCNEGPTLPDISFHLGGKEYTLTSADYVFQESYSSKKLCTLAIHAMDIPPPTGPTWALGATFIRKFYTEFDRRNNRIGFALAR

[2] = Apparent permeability from apical to basolateral side of human Caco2 cells at 20 uM after 2 hrs; conditions: Caco-2
Renin [3] = target: T1, Renin; experiment: Inhibition of human recombinant renin using dabcyl-gamma-Abu-Ile-His-Pro-Phe-His-Leu-Val-Ile-His-Thr-EDANS as substrate preincubated for 30 mins after measured after 30 mins by fluorescence assay in presence of C57BL/6 mouse plasma
Renin [4] = target: T1, Renin; experiment: Inhibition of human recombinant renin using dabcyl-gamma-Abu-Ile-His-Pro-Phe-His-Leu-Val-Ile-His-Thr-EDANS as substrate preincubated for 30 mins after measured after 30 mins by fluorescence assay in presence of human plasma

Row | Structure (SMILES) | pIC50 (Renin [1]) | further results
1 | Cc1cccc(C)c1Oc1c(C(=O)N2CCNCC2)c2ncccc2n1C1CCCCC1 | 8.40 | –
2 | CCC[C@H]1CN(C(=O)c2c(Oc3c(C)cccc3C)n(-c3ccccc3)c3cccnc23)CCN1 | 5.93 | –
3 | Cc1ccc(F)c(C)c1Oc1c(C(=O)N2CCNCC2)c2ccncc2n1-c1ccccc1 | 8.70 | –
4 | Cc1cccc(C)c1Oc1c(C(=O)N2CCN[C@@H](CO)C2)c2ncccc2n1-c1ccccc1 | 6.84 | –
5 | Cc1cnc2c(C(=O)N3CCNCC3)c(Oc3cc(F)ccc3C)n(-c3ccccc3)c2c1 | 7.85 | –
6 | Cc1c(F)cccc1Cc1c(C(=O)N2CCNCC2)c2nc(O)ccc2n1-c1ccccc1 | 5.80 | –
7 | Cc1cccc(C)c1Oc1c(C(=O)N2CCNCC2)c2ccncc2n1-c1ccccc1 | 6.95 | –
8 | Cc1cccc(C)c1Oc1c(C(=O)N2CCN[C@@H](CO)C2)c2ncccc2n1C1CCCCC1 | 6.41 | –
9 | O=C(c1c(Cc2ccccc2)n(-c2ccccc2)c2cccnc12)N1CCNCC1 | 6.03 | –
10 | Cc1c(F)cc(F)cc1Oc1c(C(=O)N2CCNCC2)c2ncccc2n1-c1ccccc1 | 6.97 | –
11 | Cc1cccc(C)c1Oc1c(C(=O)N2CCNCC2)c2ncccc2n1-c1ccccc1 | 7.85 | Papp A→B at 2 h, 20 µM [2]: 0.28 ×10⁻⁶ cm/s; pIC50 (Renin [3]): 7.82; pIC50 (Renin [4]): 7.52
12 | COc1ccc2c(n1)c(C(=O)N1CCNCC1)c(Oc1cc(F)ccc1C)n2-c1ccccc1 | 5.18 | –
13 | Cc1cc(F)c(F)cc1Oc1c(C(=O)N2CCNCC2)c2ncccc2n1-c1ccccc1 | 6.49 | –
14 | Cc1cccc(C)c1Sc1c(C(=O)N2CCNCC2)c2ncccc2n1-c1ccccc1 | 7.21 | –
15 | O=C(c1c(Cc2cccc(F)c2F)n(-c2ccccc2)c2cccnc12)N1CCNCC1 | 5.84 | –
16 | Cc1ccccc1Oc1c(C(=O)N2CCNCC2)c2ccncc2n1-c1ccccc1 | 6.31 | –
17 | Cc1cccc(C)c1Oc1c(C(=O)N2CCNCC2)c2ncc(O)cc2n1-c1ccccc1 | 8.52 | –
18 | Cc1ccc(C)c(Oc2c(C(=O)N3CCNCC3)c3ncccc3n2-c2ccccc2)c1 | 6.16 | –
19 | Cc1cccc(C)c1Oc1c(C(=O)N2CCNCC2)c2ccnc(Cl)c2n1-c1ccccc1 | 6.29 | –
20 | CC[C@H]1CN(C(=O)c2c(Oc3c(C)cccc3C)n(-c3ccccc3)c3cccnc23)CCN1 | 6.34 | –
21 | COC[C@H]1CN(C(=O)c2c(Oc3c(C)cccc3C)n(C3CCCCC3)c3cccnc23)CCN1 | 6.16 | –
22 | CCCCC1CN(C(=O)c2c(Oc3c(C)cccc3C)n(-c3ccccc3)c3cccnc23)CCN1 (racemic) | 6.55 | –
23 | Cc1cccc(C)c1Oc1c(C(=O)N2CCN[C@@H](C(C)C)C2)c2ncccc2n1-c1ccccc1 | 5.57 | –

Row | Structure (SMILES) | pIC50 (Renin [1]) | further results
24 | Cc1cccc(F)c1Oc1c(C(=O)N2CCNCC2)c2ncccc2n1-c1ccccc1 | 7.13 | –
25 | Cc1c(F)cccc1Oc1c(C(=O)N2CCNCC2)c2ncccc2n1-c1ccccc1 | 7.24 | –
26 | Cc1ccc(F)cc1Oc1c(C(=O)N2CCNCC2)c2ncccc2n1-c1ccccc1 | 7.62 | –
27 | Cc1ccc(F)c(C)c1Oc1c(C(=O)N2CCNCC2)c2ncccc2n1-c1ccccc1 | 8.89 | Papp A→B at 2 h, 20 µM [2]: 4.3 ×10⁻⁶ cm/s; pIC50 (Renin [3]): 7.44
28 | Cc1cccc(C)c1Oc1c(C(=O)N2CCN[C@@H](C)C2)c2ncccc2n1C1CCCCC1 | 7.10 | –
29 | O=C(c1c(Cc2ccccc2)n(-c2ccccc2)c2cnccc12)N1CCNCC1 | 6.12 | –
30 | Cc1cnc2c(C(=O)N3CCNCC3)c(Cc3cccc(F)c3C)n(-c3ccccc3)c2c1 | 8.05 | –
31 | O=C(c1c(Oc2cc(F)ccc2Cl)n(-c2ccccc2)c2cccnc12)N1CCNCC1 | 7.26 | –
32 | Cc1ccc(F)cc1Oc1c(C(=O)N2CCNCC2)c2nc(O)ccc2n1-c1ccccc1 | < 5.30 | –
33 | CCOc1cnc2c(C(=O)N3CCNCC3)c(Oc3c(C)cccc3C)n(-c3ccccc3)c2c1 | 7.10 | –
34 | O=C(c1c(Oc2ccccc2F)n(-c2ccccc2)c2cccnc12)N1CCNCC1 | 6.29 | –
35 | Cc1c(F)cccc1Cc1c(C(=O)N2CCNCC2)c2ncccc2n1-c1ccccc1 | 7.92 | –
36 | Cc1cccc(C)c1Oc1c(C(=O)N2CCN[C@@H](C)C2)c2ncccc2n1-c1ccccc1 | 7.22 | –
37 | CCc1nccc2c(C(=O)N3CCNCC3)c(Oc3cc(F)ccc3C)n(-c3ccccc3)c12 | 6.37 | –
38 | O=C(c1c(Oc2cccc(F)c2F)n(-c2ccccc2)c2cccnc12)N1CCNCC1 | 6.51 | –
39 | Cc1ccc(F)cc1Oc1c(C(=O)N2CCNCC2)c2ccncc2n1-c1ccccc1 | 7.57 | –
40 | COc1ccc2c(n1)c(C(=O)N1CCNCC1)c(Cc1cccc(F)c1C)n2-c1ccccc1 | 6.23 | –
41 | Cc1cccc(C)c1Oc1c(C(=O)N2CCNC[C@@H]2Cc2ccccc2)c2ncccc2n1-c1ccccc1 | 6.82 | –
42 | Cc1cc(F)cc(C)c1Cc1c(C(=O)N2CCNCC2)c2ncccc2n1-c1ccccc1 | 6.61 | –
43 | Cc1ccc(F)cc1Oc1c(C(=O)N2CCNCC2)c2ccnc(Cc3ccccc3)c2n1-c1ccccc1 | – | Papp A→B at 2 h, 20 µM [2]: 3.9 ×10⁻⁶ cm/s; pIC50 (Renin [3]): 6.72; pIC50 (Renin [4]): 6.65
44 | Cc1c(F)cccc1Cc1nccc2c(C(=O)N3CCNCC3)c(Cc3cccc(F)c3C)n(-c3ccccc3)c12 | 8.30 | –
45 | O=C(c1c(Oc2cc(F)ccc2F)n(-c2ccccc2)c2cccnc12)N1CCNCC1 | 6.69 | –
46 | Cc1c(F)cccc1Cc1c(C(=O)N2CCNCC2)c2ccncc2n1-c1ccccc1 | 7.85 | Papp A→B at 2 h, 20 µM [2]: 1.27 ×10⁻⁶ cm/s; pIC50 (Renin [3]): 7.59; pIC50 (Renin [4]): 7.60
